Patent US6762178B2, “Acetylenic aryl sulfonamide and phosphinic acid amide hydroxamic acid TACE inhibitors” (Wyeth Holdings Corporation, priority 1999, dated 2004)

Legend:
MMP-13 = MMP-13 (Homo sapiens, UniProt P45452); test: MMP-13 inhibition (thiopeptide or fluorescent peptide substrate); assay type: biochemical
Experimental: (§1) The enzyme activity is measured by the rate of the color increase. The thiopeptide substrate is made up fresh as a 20 mM stock in 100% DMSO and the DTNB is dissolved in 100% DMSO as a 100 mM stock and stored in the dark at room temperature. Both the substrate and DTNB are diluted together to 1 mM with substrate buffer (50 mM HEPES pH 7.5, 5 mM CaCl2) before use. The stock of enzyme is diluted with buffer (50 mM HEPES, pH 7.5, 5 mM CaCl2, 0.02% Brij) to the desired final concentration.
(§2) Alternatively, a fluorescent peptide substrate is used. In this test procedure, the peptide substrate contains a fluorescent group and a quenching group. Upon cleavage of the substrate by an MMP, the fluorescence that is generated is quantitated on the fluorescence plate reader. The assay is run in HCBC assay buffer (50 mM HEPES, pH 7.0, 5 mM Ca^+2, 0.02% Brij, 0.5% Cysteine), with human recombinant MMP-1, MMP-9, or MMP-13. The substrate is dissolved in methanol and stored frozen in 1 mM aliquots. For the assay, substrate and enzymes are diluted in HCBC buffer to the desired concentrations. […]
(§3) For either the thiopeptide or fluorescent peptide test procedures, the slope of the line is calculated and represents the reaction rate. […] The mean (x±sem) of the control rate is calculated and compared for statistical significance (p<0.05) with drug-treated rates using Dunnett's multiple comparison test.

MMP-9 = MMP-9 (Homo sapiens, UniProt P14780); test: MMP-9 inhibition (thiopeptide or fluorescent peptide substrate); assay type: biochemical
Sequence of MMP-9 (P14780 94-707): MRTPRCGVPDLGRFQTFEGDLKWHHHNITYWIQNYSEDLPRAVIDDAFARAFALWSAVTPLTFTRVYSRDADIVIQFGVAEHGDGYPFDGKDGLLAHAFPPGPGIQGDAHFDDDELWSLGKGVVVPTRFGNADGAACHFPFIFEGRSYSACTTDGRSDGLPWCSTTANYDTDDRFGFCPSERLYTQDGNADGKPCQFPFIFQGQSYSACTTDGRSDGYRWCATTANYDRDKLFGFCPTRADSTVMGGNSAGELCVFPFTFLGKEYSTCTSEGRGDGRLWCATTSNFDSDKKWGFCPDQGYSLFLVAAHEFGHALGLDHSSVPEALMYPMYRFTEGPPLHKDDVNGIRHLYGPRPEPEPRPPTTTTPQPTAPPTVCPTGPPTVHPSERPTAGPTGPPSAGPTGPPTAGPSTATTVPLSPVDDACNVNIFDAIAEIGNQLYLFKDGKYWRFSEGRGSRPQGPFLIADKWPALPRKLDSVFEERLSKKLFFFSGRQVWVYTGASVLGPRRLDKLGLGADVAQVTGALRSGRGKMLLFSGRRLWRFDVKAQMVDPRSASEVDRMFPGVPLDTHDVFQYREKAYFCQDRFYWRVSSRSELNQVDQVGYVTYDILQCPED
Experimental: as §1, §2, §3

[1] = target: TNF-α converting enzyme (TACE) (Homo sapiens, UniProt P78536); test: TACE inhibition (fluorescent peptidyl substrate); assay type: biochemical
Sequence of TNF-α converting enzyme (TACE) (P78536 215-824, species assumed): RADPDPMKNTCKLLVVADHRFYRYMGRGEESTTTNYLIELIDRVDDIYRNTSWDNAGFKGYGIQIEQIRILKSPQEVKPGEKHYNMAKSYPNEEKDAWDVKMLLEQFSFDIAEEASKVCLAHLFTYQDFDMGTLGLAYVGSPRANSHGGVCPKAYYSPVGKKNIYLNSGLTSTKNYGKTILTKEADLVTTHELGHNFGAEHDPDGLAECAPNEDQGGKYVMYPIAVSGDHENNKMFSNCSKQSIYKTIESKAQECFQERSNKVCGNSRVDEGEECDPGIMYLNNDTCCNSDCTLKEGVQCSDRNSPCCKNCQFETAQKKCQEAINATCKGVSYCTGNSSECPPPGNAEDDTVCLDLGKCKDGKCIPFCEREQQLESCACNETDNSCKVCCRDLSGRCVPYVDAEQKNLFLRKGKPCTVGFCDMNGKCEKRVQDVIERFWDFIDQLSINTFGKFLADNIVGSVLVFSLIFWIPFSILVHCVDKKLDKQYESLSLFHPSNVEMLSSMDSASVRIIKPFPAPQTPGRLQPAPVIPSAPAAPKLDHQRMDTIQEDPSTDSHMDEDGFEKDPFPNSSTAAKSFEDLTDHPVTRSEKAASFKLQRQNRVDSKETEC
Experimental: Using 96-well black microtiter plates, each well receives a solution composed of 10 μL TACE (final concentration 1 μg/mL), 70 μL Tris buffer, pH 7.4 containing 10% glycerol (final concentration 10 mM), and 10 μL of test compound solution in DMSO (final concentration 1 μM, DMSO concentration <1%) and incubated for 10 minutes at room temperature. The reaction is initiated by addition of a fluorescent peptidyl substrate (final concentration 100 μM) to each well and then shaking on a shaker for 5 sec.
The reaction is read (excitation 340 nm, emission 420 nm) for 10 min. and the increase in fluorescence over time is plotted as a linear line. The slope of the line is calculated and represents the reaction rate.
The mean (x±sem) of the control rate is calculated and compared for statistical significance (p<0.05) with drug-treated rates using Dunnett's multiple comparison test.

THP-1 cells = test: THP-1 soluble protein assay; assay type: cell-based, human; settings: LPS-stimulated THP-1 cells
Text: In addition, non-stimulated THP-1 cells shed both the p75/80 and the p55/60 receptors over time. The release of membrane bound TNF-α and possibly TNF-R p75/80 and TNF-R p55/60, but not IL-8, is mediated by an enzyme called TNF-a converting enzyme or TACE.
THP-1 cells (from ATCC) are a human monocytic cell line which were obtained from the peripheral blood of a person with acute monocytic leukemia. They can be grown in culture and differentiated into macrophage like cells by stimulation with mitogens.
Each vial of cells are cultured for about two weeks prior to being used for an assay and then are used for only 4 to 6 weeks to screen compounds.
Cell exposure to DMSO was limited to 0.1% final concentration. […] Compounds can be evaluated for their effect on basal (non-stimulated) shedding of the receptors by replacing the LPS with […] of THP-1 media. Plates are placed into an incubator set at 5% CO2 and at 37° C. […]
In addition, at the 24 hours timepoint, and the cells for each treatment group are collected by resuspension in 500 μl/well of THP-1 media and transferred into a FACS tube. […] The samples are run on a Becton Dickinson FaxCaliber FLOW cytometry machine and the amount of dye taken up by each cell is measured in the high red wavelength (FL3). […] The percent of live cells is calculated by the number of cells not stained with PI, divided by the total number of cells in the sample. […]

MMP-1 = target: T1, MMP-1 (Homo sapiens, UniProt P03956); test: MMP-1 inhibition (thiopeptide or fluorescent peptide substrate); assay type: biochemical
T1 sequence (P03956 100-469): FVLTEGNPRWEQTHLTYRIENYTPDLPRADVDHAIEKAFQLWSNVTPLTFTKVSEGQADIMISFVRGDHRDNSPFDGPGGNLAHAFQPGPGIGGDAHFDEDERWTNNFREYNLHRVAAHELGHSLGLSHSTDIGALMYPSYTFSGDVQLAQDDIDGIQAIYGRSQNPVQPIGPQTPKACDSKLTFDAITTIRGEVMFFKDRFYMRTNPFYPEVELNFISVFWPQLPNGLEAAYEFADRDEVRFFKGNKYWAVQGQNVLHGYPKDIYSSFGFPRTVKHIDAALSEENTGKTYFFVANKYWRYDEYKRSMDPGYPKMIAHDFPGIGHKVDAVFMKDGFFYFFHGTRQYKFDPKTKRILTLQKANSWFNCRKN
Experimental: as §1, §2, §3

For “5-Bromo-2-[(4-butoxy-benzenesulfonyl)-methyl-amino]-N-hydroxy-3-methyl-benzamide [Example 39]”, the IC50 (MMP-13) was 0.068 µM, the IC50 (MMP-9) was 0.021 µM and the IC50 [1] was 0.067 µM. For the same substance, the “THP % Inhib. @ 3 μM” value (THP-1 cells) was 0% and the IC50 (MMP-1) was 2.49 µM.
